# PubChem BioAssay AID2060495 (Molecular Pharmacology Branch, DTP, NCI, 2025)
# System: 521955-158-R2-J5-PDC complex spheroid viability
# Test: Anticancer human tumor 521955-158-R2-J5-PDC patient-derived pancreatic carcinoma cell line growth inhibition [GQUAD]
# Conditions: for IC50: curve of first compound; for viability, T/C: stronger effect = lower value
# Method in brief: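 Tumor cells were grown as complex spheroids with HUVEC endothelial cells and mesenchymal stem cells as stroma. G-quadruplex stabilizers were combined with targeted agents over half-log dilutions from near the clinical Cmax, or from 10 microM.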
# [1] = second compound 0.0316 µM, first compound 0.0316 µM
# [2] = second compound 0.0316 µM, first compound 0.1 µM
# [3] = second compound 0.0316 µM, first compound 0.316 µM
# [4] = second compound 0.0316 µM, first compound 1 µM
# [5] = second compound 0.0316 µM, first compound 3.16 µM
# [6] = second compound 0.0316 µM, first compound 10 µM
# [7] = second compound 0.1 µM, first compound 0.0316 µM
# [8] = second compound 0.1 µM, first compound 0.1 µM
# [9] = second compound 0.1 µM, first compound 0.316 µM
# [10] = second compound 0.1 µM, first compound 1 µM
# [11] = second compound 0.1 µM, first compound 3.16 µM
# [12] = second compound 0.1 µM, first compound 10 µM
# [13] = second compound 0.316 µM, first compound 0.0316 µM
# [14] = second compound 0.316 µM, first compound 0.1 µM
# [15] = second compound 0.316 µM, first compound 0.316 µM
# [16] = second compound 0.316 µM, first compound 1 µM
# [17] = second compound 0.316 µM, first compound 3.16 µM
# [18] = second compound 0.316 µM, first compound 10 µM
# [19] = second compound 1 µM, first compound 0.0316 µM
# [20] = second compound 1 µM, first compound 0.1 µM
# [21] = second compound 1 µM, first compound 0.316 µM
# [22] = second compound 1 µM, first compound 1 µM
# [23] = second compound 1 µM, first compound 3.16 µM
# [24] = second compound 1 µM, first compound 10 µM
# [25] = second compound 3.16 µM, first compound 0.0316 µM
# [26] = second compound 3.16 µM, first compound 0.1 µM
# [27] = second compound 3.16 µM, first compound 0.316 µM
# [28] = second compound 3.16 µM, first compound 1 µM
# [29] = second compound 3.16 µM, first compound 3.16 µM
# [30] = second compound 3.16 µM, first compound 10 µM
# [31] = second compound 10 µM, first compound 0.0316 µM
# [32] = second compound 10 µM, first compound 0.1 µM
# [33] = second compound 10 µM, first compound 0.316 µM
# [34] = second compound 10 µM, first compound 1 µM
# [35] = second compound 10 µM, first compound 3.16 µM
# [36] = second compound 10 µM, first compound 10 µM
# 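Note: spheroids exposed to agents for one week before reading.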
# 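Throughout, for viability, T/C: 100% = DMSO vehicle control viability.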
smiles,measurement,setting,value
CCCS(=O)(=O)Nc1ccc(F)c(C(=O)c2c[nH]c3ncc(-c4ccc(Cl)cc4)cc23)c1F + Cc1[nH]c2ccc(F)cc2c1-c1nc2c3cccnc3c3ncccc3c2[nH]1,IC50,second compound 0.0316 µM,> 10000 nM
same,IC50,second compound 0.1 µM,> 10000 nM
same,IC50,second compound 0.316 µM,> 10000 nM
same,IC50,second compound 1 µM,> 10000 nM
same,IC50,second compound 3.16 µM,> 10000 nM
same,IC50,second compound 10 µM,> 10000 nM
same,"viability, T/C",[1],103%
same,"viability, T/C",[2],95.9%
same,"viability, T/C",[3],79.8%
same,"viability, T/C",[4],105%
same,"viability, T/C",[5],198%
same,"viability, T/C",[6],112%
same,"viability, T/C",[7],104%
same,"viability, T/C",[8],86%
same,"viability, T/C",[9],72.1%
same,"viability, T/C",[10],97.4%
same,"viability, T/C",[11],226%
same,"viability, T/C",[12],96.9%
same,"viability, T/C",[13],97.2%
same,"viability, T/C",[14],95.5%
same,"viability, T/C",[15],78.6%
same,"viability, T/C",[16],101%
same,"viability, T/C",[17],226%
same,"viability, T/C",[18],105%
same,"viability, T/C",[19],99.9%
same,"viability, T/C",[20],88.6%
same,"viability, T/C",[21],78.1%
same,"viability, T/C",[22],102%
same,"viability, T/C",[23],272%
same,"viability, T/C",[24],95.2%
same,"viability, T/C",[25],92.3%
same,"viability, T/C",[26],76%
same,"viability, T/C",[27],65%
same,"viability, T/C",[28],220%
same,"viability, T/C",[29],265%
same,"viability, T/C",[30],99.9%
same,"viability, T/C",[31],99.8%
same,"viability, T/C",[32],84.9%
same,"viability, T/C",[33],64.9%
same,"viability, T/C",[34],173%
same,"viability, T/C",[35],258%
same,"viability, T/C",[36],84.6%
Cn1ncnc1[C@H]1c2n[nH]c(=O)c3cc(F)cc(c23)N[C@@H]1c1ccc(F)cc1 + Cc1[nH]c2ccc(F)cc2c1-c1nc2c3cccnc3c3ncccc3c2[nH]1,IC50,second compound 0.0316 µM,> 316 nM
same,IC50,second compound 0.1 µM,> 316 nM
same,IC50,second compound 0.316 µM,> 316 nM
same,IC50,second compound 1 µM,> 316 nM
same,IC50,second compound 3.16 µM,> 316 nM
same,IC50,second compound 10 µM,> 316 nM
same,"viability, T/C","second compound 0.0316 µM, first compound 0.000999 µM",95.7%
same,"viability, T/C","second compound 0.0316 µM, first compound 0.00316 µM",86.3%
same,"viability, T/C","second compound 0.0316 µM, first compound 0.00999 µM",93.5%
same,"viability, T/C",[1],91%
same,"viability, T/C","second compound 0.0316 µM, first compound 0.0999 µM",73.2%
same,"viability, T/C",[3],59.8%
same,"viability, T/C","second compound 0.1 µM, first compound 0.000999 µM",89.4%
same,"viability, T/C","second compound 0.1 µM, first compound 0.00316 µM",106%
same,"viability, T/C","second compound 0.1 µM, first compound 0.00999 µM",90.9%
same,"viability, T/C",[7],80.4%
same,"viability, T/C","second compound 0.1 µM, first compound 0.0999 µM",91.1%
same,"viability, T/C",[9],74.4%
same,"viability, T/C","second compound 0.316 µM, first compound 0.000999 µM",94.3%
same,"viability, T/C","second compound 0.316 µM, first compound 0.00316 µM",96%
same,"viability, T/C","second compound 0.316 µM, first compound 0.00999 µM",83.6%
same,"viability, T/C",[13],88.7%
same,"viability, T/C","second compound 0.316 µM, first compound 0.0999 µM",70.4%
same,"viability, T/C",[15],73.1%
same,"viability, T/C","second compound 1 µM, first compound 0.000999 µM",91.7%
same,"viability, T/C","second compound 1 µM, first compound 0.00316 µM",93.7%
same,"viability, T/C","second compound 1 µM, first compound 0.00999 µM",91%
same,"viability, T/C",[19],74.2%
same,"viability, T/C","second compound 1 µM, first compound 0.0999 µM",102%
same,"viability, T/C",[21],73.6%
same,"viability, T/C","second compound 3.16 µM, first compound 0.000999 µM",93%
same,"viability, T/C","second compound 3.16 µM, first compound 0.00316 µM",107%
same,"viability, T/C","second compound 3.16 µM, first compound 0.00999 µM",83.9%
same,"viability, T/C",[25],86.8%
same,"viability, T/C","second compound 3.16 µM, first compound 0.0999 µM",70.8%
same,"viability, T/C",[27],69.8%
same,"viability, T/C","second compound 10 µM, first compound 0.000999 µM",92.7%
same,"viability, T/C","second compound 10 µM, first compound 0.00316 µM",80.5%
same,"viability, T/C","second compound 10 µM, first compound 0.00999 µM",82.6%
same,"viability, T/C",[31],86.1%
same,"viability, T/C","second compound 10 µM, first compound 0.0999 µM",77.8%
same,"viability, T/C",[33],68.1%
CC(C)n1c(=O)n(C)c2cnc3cc(F)c(-c4ccc(OCCCN5CCCCC5)nc4)cc3c21 + Cc1cnc(CNC(=O)c2c(=O)c3ccc(N4CCCN(C)CC4)nc3n3c2sc2ccccc23)cn1,IC50,second compound 0.0316 µM,> 10000 nM
same,IC50,second compound 0.1 µM,> 10000 nM
same,IC50,second compound 0.316 µM,< 31.6 nM
same,IC50,second compound 1 µM,< 31.6 nM
same,IC50,second compound 3.16 µM,< 31.6 nM
same,IC50,second compound 10 µM,< 31.6 nM
same,"viability, T/C",[1],60.1%
same,"viability, T/C",[2],53.2%
same,"viability, T/C",[3],70.5%
same,"viability, T/C",[4],56%
same,"viability, T/C",[5],76.2%
same,"viability, T/C",[6],74.9%
same,"viability, T/C",[7],44.2%
same,"viability, T/C",[8],60.9%
same,"viability, T/C",[9],62.2%
same,"viability, T/C",[10],54.1%
same,"viability, T/C",[11],49.7%
same,"viability, T/C",[12],56.6%
same,"viability, T/C",[13],31.7%
same,"viability, T/C",[14],31.4%
same,"viability, T/C",[15],42.6%
same,"viability, T/C",[16],40.4%
same,"viability, T/C",[17],36.7%
same,"viability, T/C",[18],41.7%
same,"viability, T/C",[19],20%
same,"viability, T/C",[20],22.5%
same,"viability, T/C",[21],19.5%
same,"viability, T/C",[22],20%
same,"viability, T/C",[23],22.1%
same,"viability, T/C",[24],26.8%
same,"viability, T/C",[25],19.1%
same,"viability, T/C",[26],17.9%
same,"viability, T/C",[27],19.6%
same,"viability, T/C",[28],21.1%
same,"viability, T/C",[29],24.6%
same,"viability, T/C",[30],20.4%
same,"viability, T/C",[31],17.7%
same,"viability, T/C",[32],19.4%
same,"viability, T/C",[33],18.9%
same,"viability, T/C",[34],20%
same,"viability, T/C",[35],21.1%
same,"viability, T/C",[36],21.8%
